Assay results published in article PMC8595762 (Plant Direct, 2021).

Experiments:
[1] = molecular target: T1, ABCB4 (Arabidopsis thaliana, UniProt O80725); experiment: whole-cell patch clamp, current magnitude; type: cell-based; conditions: activation; IAA in pipette (cytoplasmic side); 50 mM CsCl
T1 sequence (O80725 1-1286): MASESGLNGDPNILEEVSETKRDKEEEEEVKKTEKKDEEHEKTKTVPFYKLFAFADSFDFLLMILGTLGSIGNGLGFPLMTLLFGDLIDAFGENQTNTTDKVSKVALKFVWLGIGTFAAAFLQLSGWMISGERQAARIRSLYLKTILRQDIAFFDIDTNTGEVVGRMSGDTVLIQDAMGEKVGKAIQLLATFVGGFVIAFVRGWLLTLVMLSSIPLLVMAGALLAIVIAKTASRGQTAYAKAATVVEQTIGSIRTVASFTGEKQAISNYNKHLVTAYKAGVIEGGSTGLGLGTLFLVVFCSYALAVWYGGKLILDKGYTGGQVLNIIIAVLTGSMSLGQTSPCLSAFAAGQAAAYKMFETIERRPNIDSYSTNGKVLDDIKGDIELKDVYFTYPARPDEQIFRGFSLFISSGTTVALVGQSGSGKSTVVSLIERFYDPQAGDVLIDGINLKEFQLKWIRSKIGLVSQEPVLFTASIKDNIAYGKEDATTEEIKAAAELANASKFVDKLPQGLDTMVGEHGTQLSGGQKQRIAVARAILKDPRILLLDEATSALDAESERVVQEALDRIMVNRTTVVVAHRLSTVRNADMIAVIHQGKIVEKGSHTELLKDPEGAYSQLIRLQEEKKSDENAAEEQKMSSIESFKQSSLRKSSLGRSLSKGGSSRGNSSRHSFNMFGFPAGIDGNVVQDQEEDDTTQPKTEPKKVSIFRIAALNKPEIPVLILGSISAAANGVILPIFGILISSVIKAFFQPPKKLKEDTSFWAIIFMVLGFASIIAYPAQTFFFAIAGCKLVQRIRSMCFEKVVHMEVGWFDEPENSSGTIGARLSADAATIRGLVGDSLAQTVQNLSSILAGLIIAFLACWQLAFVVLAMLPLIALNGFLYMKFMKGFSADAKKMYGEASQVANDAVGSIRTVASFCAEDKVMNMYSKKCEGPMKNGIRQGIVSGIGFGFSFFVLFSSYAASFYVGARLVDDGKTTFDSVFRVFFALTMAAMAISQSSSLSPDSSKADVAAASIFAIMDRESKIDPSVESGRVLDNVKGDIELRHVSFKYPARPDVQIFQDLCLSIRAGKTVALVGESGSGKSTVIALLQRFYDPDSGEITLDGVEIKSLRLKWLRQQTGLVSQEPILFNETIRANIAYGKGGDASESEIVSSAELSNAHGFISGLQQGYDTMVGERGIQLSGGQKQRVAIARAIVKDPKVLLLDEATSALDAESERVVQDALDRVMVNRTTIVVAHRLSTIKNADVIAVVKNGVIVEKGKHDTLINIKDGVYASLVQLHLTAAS

[2] = molecular target: T2, PIN2 (Arabidopsis thaliana, UniProt Q9LU77); experiment: whole-cell patch clamp, block of currents; type: cell-based; conditions: inhibition; NPPB in bath; auxin-stimulated conditions; 50 mM CsCl
T2 sequence (Q9LU77 1-647): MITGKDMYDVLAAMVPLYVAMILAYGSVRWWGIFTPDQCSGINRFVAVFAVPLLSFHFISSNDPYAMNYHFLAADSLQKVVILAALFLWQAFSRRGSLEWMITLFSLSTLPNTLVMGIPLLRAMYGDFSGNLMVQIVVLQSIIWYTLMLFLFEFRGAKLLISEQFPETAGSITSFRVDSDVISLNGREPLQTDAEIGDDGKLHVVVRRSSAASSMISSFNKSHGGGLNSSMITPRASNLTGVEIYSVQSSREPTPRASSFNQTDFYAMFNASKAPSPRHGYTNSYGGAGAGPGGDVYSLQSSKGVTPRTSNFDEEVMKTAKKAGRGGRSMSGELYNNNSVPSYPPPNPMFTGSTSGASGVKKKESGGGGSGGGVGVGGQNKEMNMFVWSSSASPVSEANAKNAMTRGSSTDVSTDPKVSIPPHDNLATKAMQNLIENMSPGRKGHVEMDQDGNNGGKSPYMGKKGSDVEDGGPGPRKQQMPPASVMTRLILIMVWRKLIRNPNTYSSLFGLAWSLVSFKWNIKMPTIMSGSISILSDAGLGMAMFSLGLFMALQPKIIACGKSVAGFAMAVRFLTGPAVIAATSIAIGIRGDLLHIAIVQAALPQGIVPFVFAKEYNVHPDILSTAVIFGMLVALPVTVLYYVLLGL

| % increase in currents, 0.1 to 1 μM IAA [1] | SMILES | block at 20 μM [2] |
| --- | --- | --- |
| ~ 30% | O=C(O)Cc1c[nH]c2ccccc12 [IAA^−] |  |
|  | O=C(O)c1cc([N+](=O)[O-])ccc1NCCCc1ccccc1 [NPPB, 5‐nitro‐2‐(3‐phenylpropylamine)‐benzoic acid] | NPPB but not NPA was an effective inhibitor |
